Source: US10479795B2 (Incyte Corporation, priority 2016, dated 2019)
Where a name gives a salt, the structure may show the parent alone.

Assays:
[1] = target: PI3Kγ (p110γ) Recombinant Human Protein (Homo sapiens (Human), UniProt P48736); test: PI3K-γ Scintillation Proximity Assay; type: biochemical; settings: read-out: PI3Kγ IC50
Description: [γ-^33P]ATP (10 mCi/mL) and Wheat Germ Agglutinin (WGA) YSi SPA Scintillation Beads was purchased from Perkin-Elmer (Waltham, Mass.). […] PI3Kγ (p110γ) Recombinant Human Protein was purchased from Life technology (Grand Island, N.Y.). ATP, MgCl2, DTT, EDTA, MOPS and CHAPS were purchased from Sigma-Aldrich (St. Louis, Mo.).
The kinase reaction was conducted in polystyrene 384-well Greiner Bio-one white plate from Thermo Fisher Scientific in a final volume of 25 μL. Inhibitors were first diluted serially in DMSO and added to the plate wells before the addition of other reaction components. The final concentration of DMSO in the assay was 2%. The PI3Kγ assay was carried out at room temperature in 20 mM MOPS, pH 6.7, 10 mM MgCl2, 5 mM DTT and CHAPS 0.03%. Reactions were initiated by the addition of ATP, the final reaction mixture consisted of 20 μM PIP2, 2 μM ATP, 0.5 μCi [γ-^33P] […] The final concentration of SPA beads is 1.0 mg/mL. After the plate sealing, plates were shaken overnight at room temperature and centrifuged at 1500 rpm for 10 min, the radioactivity of the product was determined by scintillation counting on Topcount (Perkin-Elmer). IC50 determination was performed by fitting the curve of percent of the solvent control activity versus the log of the inhibitor concentration using the GraphPad Prism 6.0 software.

[2] = target: PI3Kδ (p110δ/p85α) Recombinant Human Protein (Homo sapiens (Human), UniProt O00329); test: PI3Kδ Scintillation Proximity Assay; type: biochemical
PI3Kδ (p110δ/p85α) Recombinant Human Protein, sequence (O00329 whole entry): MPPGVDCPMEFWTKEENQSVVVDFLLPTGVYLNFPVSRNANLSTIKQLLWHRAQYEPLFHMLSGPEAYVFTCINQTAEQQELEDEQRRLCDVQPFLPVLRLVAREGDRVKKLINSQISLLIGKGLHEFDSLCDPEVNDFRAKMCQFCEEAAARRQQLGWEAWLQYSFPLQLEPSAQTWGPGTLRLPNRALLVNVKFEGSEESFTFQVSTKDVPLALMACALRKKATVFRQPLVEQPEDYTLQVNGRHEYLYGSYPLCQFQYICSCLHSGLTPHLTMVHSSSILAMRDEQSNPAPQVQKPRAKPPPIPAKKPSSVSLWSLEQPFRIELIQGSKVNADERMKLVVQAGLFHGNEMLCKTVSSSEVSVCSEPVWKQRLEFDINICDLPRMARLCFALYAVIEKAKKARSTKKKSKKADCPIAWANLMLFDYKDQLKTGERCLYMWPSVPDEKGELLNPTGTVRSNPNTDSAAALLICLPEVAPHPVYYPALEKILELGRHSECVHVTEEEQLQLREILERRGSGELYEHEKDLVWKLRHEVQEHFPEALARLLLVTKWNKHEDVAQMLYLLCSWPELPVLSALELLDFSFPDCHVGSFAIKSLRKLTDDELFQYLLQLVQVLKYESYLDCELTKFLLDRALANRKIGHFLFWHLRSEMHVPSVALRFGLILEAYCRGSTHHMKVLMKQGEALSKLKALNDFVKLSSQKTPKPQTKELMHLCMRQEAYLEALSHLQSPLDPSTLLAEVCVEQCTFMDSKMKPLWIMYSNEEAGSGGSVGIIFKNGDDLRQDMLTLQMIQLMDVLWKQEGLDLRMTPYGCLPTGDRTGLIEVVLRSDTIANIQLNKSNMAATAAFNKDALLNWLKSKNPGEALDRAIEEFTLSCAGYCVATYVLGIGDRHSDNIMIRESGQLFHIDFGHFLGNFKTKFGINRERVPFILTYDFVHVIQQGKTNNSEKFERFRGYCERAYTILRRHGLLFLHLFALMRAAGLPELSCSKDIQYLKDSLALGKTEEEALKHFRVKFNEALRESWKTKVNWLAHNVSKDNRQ
PI3Kδ (p110δ/p85α) Recombinant Human Protein, sequence (P27986 whole entry partner): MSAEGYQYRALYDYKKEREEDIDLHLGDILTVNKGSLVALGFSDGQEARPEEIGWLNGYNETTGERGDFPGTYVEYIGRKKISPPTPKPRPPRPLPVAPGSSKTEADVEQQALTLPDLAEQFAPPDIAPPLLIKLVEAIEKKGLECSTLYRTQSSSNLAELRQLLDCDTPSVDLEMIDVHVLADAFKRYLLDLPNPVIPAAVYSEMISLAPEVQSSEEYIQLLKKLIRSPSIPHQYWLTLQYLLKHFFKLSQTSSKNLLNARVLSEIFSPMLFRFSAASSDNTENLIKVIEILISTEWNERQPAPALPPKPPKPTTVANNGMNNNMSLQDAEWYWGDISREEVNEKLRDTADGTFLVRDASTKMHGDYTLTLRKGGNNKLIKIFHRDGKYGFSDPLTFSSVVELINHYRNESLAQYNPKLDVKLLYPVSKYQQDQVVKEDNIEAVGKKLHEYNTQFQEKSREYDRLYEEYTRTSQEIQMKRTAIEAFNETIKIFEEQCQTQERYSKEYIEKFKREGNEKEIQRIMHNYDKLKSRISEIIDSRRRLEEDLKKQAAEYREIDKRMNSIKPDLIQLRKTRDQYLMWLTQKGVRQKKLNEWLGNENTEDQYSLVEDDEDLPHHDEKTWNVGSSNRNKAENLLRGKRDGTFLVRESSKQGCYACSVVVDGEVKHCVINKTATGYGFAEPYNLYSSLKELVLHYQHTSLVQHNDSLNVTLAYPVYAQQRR
Text: Example C. PI3Kδ Scintillation Proximity Assay
[γ-^33P]ATP (10 mCi/mL) and Wheat Germ Agglutinin (WGA) YSi SPA Scintillation Beads was purchased from Perkin-Elmer (Waltham, Mass.). Lipid kinase substrate, D-myo-Phosphatidylinositol 4,5-bisphosphate (PtdIns(4,5)P2)D (+)-sn-1,2-di-O-octanoylglyceryl, 3-O-phospho linked (PIP2), CAS 204858-53-7, was purchased from Echelon Biosciences (Salt Lake City, Utah). PI3Kδ (p110δ/p85α) Recombinant Human Protein was purchased from Eurofins (St Charles, Mo.). ATP, MgCl2, DTT, EDTA, MOPS and CHAPS were purchased from Sigma-Aldrich (St. Louis, Mo.).
The kinase reaction was conducted in polystyrene 384-well Greiner Bio-one white plate from Thermo Fisher Scientific in a final volume of 25 μL. Inhibitors were first diluted serially in DMSO and added to the plate wells before the addition of other reaction components. The final concentration of DMSO in the assay was 2%. The PI3Kδ assay was carried out at room temperature in 20 mM MOPS, pH 6.7, 10 mM MgCl2, 5 mM DTT and CHAPS 0.03%. Reactions were initiated by the addition of ATP, the final reaction mixture consisted of 20 μM PIP2, 2 μM ATP, 0.5 μCi [γ-^33P] ATP, 3.4 nM PI3Kδ. Reactions were incubated for 120 min and terminated by the addition of 40 μL SPA beads suspended in quench buffer: 163 mM potassium phosphate pH 7.8, 20% glycerol, 25 mM EDTA. The final concentration of SPA beads is 1.0 mg/mL. After the plate sealing, plates were shaken overnight at room temperature and centrifuged at 1500 rpm for 10 min, the radioactivity of the product was determined by scintillation counting on Topcount (Perkin-Elmer). IC50 determination was performed by fitting the curve of percent of the solvent control activity versus the log of the inhibitor concentration using the GraphPad Prism 6.0 software.

PI3Kγ (p110γ) Recombinant Human Protein, sequence (P48736 whole entry): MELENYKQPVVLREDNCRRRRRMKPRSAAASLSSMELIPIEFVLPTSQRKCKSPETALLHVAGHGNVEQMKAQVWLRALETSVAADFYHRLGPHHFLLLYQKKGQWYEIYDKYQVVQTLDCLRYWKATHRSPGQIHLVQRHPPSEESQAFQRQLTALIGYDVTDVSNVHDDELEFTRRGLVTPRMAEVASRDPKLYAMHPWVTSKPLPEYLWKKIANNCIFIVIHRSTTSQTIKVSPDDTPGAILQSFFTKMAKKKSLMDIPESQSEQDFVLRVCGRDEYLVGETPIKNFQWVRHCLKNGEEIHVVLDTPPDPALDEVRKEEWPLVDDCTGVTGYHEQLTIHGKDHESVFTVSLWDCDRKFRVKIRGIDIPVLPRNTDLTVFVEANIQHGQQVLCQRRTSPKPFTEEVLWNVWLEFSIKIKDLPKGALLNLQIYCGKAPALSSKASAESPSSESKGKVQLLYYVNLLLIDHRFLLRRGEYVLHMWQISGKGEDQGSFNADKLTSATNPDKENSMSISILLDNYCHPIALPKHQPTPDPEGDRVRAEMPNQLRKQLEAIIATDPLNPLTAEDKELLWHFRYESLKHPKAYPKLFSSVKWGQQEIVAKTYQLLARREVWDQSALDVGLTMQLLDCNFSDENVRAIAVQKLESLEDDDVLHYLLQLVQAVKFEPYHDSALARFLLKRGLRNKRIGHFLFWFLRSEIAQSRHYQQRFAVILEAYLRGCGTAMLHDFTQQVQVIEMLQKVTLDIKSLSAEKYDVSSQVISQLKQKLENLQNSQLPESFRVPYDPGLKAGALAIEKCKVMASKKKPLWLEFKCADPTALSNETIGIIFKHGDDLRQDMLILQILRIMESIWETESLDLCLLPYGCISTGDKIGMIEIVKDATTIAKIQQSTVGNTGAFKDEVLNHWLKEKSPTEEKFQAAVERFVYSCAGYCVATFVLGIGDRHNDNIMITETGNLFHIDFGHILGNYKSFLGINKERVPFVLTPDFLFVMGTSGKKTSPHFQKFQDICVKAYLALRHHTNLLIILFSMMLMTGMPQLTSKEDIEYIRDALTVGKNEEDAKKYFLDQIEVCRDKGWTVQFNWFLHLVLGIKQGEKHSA

IC50 [1] [nM] | IC50 [2] [nM] | SMILES
< 100 | 100 to 500 | Cc1ccc(S(C)(=O)=O)cc1-c1cnc2c(N)nc(-c3ccnn3C)cn12 [Example 479, 6-(1-Methyl-1H-pyrazol-5-yl)-3-(2-methyl-5-(methylsulfonyl)phenyl)imidazo[1,2-a]pyrazin-8-amine trifluoroacetate]
< 100 | 500 to 2000 | COc1ccc(S(=O)(=O)NC23CCC(C#N)(C2)C3)cc1-c1cnc2c(N)ncnn12 [Example 372, 3-(4-Aminoimidazo[1,2-f][1,2,4]triazin-7-yl)-N-(4-cyanobicyclo[2.1.1]hexan-1-yl)-4-methoxybenzenesulfonamide trifluoroacetate salt]
100 to 500 | 500 to 2000 | Cc1ccc(S(=O)(=O)N(C)CC2(CO)CC2)cc1-c1cnc2c(N)ncnn12 [Example 160, 3-(4-aminoimidazo[2,1-f][1,2,4]triazin-7-yl)-N-((1-(hydroxymethyl)cyclopropyl)methyl)-N,4-dimethylbenzenesulfonamide]
< 100 | 500 to 2000 | Cc1ccc(S(=O)(=O)N2CC[C@@H](C#N)C2)cc1-c1cnc2c(N)ncnn12 [Example 150, (R)-1-((3-(4-aminoimidazo[2,1-f][1,2,4]triazin-7-yl)-4-methylphenyl)sulfonyl)pyrrolidine-3-carbonitrile]
< 100 | 500 to 2000 | Cc1ccc(S(=O)(=O)N2CC3CC3(C#N)C2)cc1-c1cnc2c(N)nc(C(F)(F)F)cn12 (centres unmarked) [Example 302, 3-((3-(8-amino-6-(trifluoromethyl)imidazo[1,2-a]pyrazin-3-yl)-4-methylphenyl)sulfonyl)-3-azabicyclo[3.1.0]hexane-1-carbonitrile]
< 100 | 500 to 2000 | Cc1ccc(S(=O)(=O)N2CC3C(O)C2CN3C2CCC(C#N)C2)cc1-c1cnc2c(N)nc(C(F)(F)F)nn12 (centres unmarked) [Example 351, 3-(5-((3-(4-amino-2-(trifluoromethyl)imidazo[2,1-f][1,2,4]triazin-7-yl)-4-methylphenyl)sulfonyl)-7-hydroxy-2,5-diazabicyclo[2.2.1]heptan-2-yl)cyclopentane-1-carbonitrile]
500 to 2000 | > 2000 | Cc1cc(-c2cnc3c(N)nccn23)cc(S(=O)(=O)N[C@H]2CC[C@H](O)CC2)c1 [Example 44, 3-(8-Aminoimidazo[1,2-a]pyrazin-3-yl)-N-(trans-4-hydroxycyclohexyl)-5-methylbenzenesulfonamide]
< 100 | 100 to 500 | Cc1ccc(S(C)(=O)=O)cc1-c1cnc2c(N)nc(-c3ccc(C(=O)N(C)C)cc3F)cn12 [Example 480, 4-(8-Amino-3-(2-methyl-5-(methylsulfonyl)phenyl)imidazo[1,2-a]pyrazin-6-yl)-3-fluoro-N,N-dimethylbenzamide]
< 100 | – | Cc1ccc(S(=O)(=O)NC23CCCC(C(C)N4CC(C#N)C4)(C2)C3)cc1-c1cnc2c(N)ncnn12 (centres unmarked) [Example 522, 3-(4-Aminoimidazo[2,1-f][1,2,4]triazin-7-yl)-N-(5-(1-(3-cyanoazetidin-1-yl)ethyl)bicyclo[3.1.1]heptan-1-yl)-4-methylbenzenesulfonamide trifluoroacetate]
< 100 | – | Cc1ccncc1NS(=O)(=O)c1ccc(C)c(-c2cnc3c(N)ncnn23)c1 [Example 245, 3-(4-aminoimidazo[2,1-f][1,2,4]triazin-7-yl)-4-methyl-N-(4-methylpyridin-3-yl)benzenesulfonamide]
< 100 | – | Cc1ccc(S(=O)(=O)Nc2ccc(C(=O)NCC(F)(F)F)nc2)cc1-c1cnc2c(N)ncnn12 [Example 539, 5-((3-(4-Aminoimidazo[2,1-f][1,2,4]triazin-7-yl)-4-methylphenyl)sulfonamido)-N-(2,2,2-trifluoroethyl)picolinamide trifluoroacetate]

The next lines start with the compound.

SMILES | IC50 [1] [nM] | IC50 [2] [nM]
Cc1ccc(S(C)(=O)=O)cc1-c1cnc2c(N)nc(C(=O)NC3CCCN(S(C)(=O)=O)C3)cn12 (centres unmarked) [Example 462, 8-Amino-3-(2-methyl-5-(methylsulfonyl)phenyl)-N-(1-(methylsulfonyl)piperidin-3-yl)imidazo[1,2-a]pyrazine-6-carboxamide trifluoroacetate salt] | < 100 | 500 to 2000
Cc1ccc(S(=O)(=O)N2CC(=O)N3CCCC[C@@H]3C2)cc1-c1cnc2c(N)ncnn12 [Example 172, (R)-2-((3-(4-aminoimidazo[2,1-f][1,2,4]triazin-7-yl)-4-methylphenyl)sulfonyl)octahydro-4H-pyrido[1,2-a]pyrazin-4-one] | 100 to 500 | 500 to 2000
Cc1ccc(S(=O)(=O)N2[C@@H]3CC[C@H]2CN(C)C3)cc1-c1cnc2c(N)ncnn12 [Example 170, 7-(2-methyl-5-(((1R,5S)-3-methyl-3,8-diazabicyclo[3.2.1]octan-8-yl)sulfonyl)phenyl)imidazo[2,1-f][1,2,4]triazin-4-amine] | < 100 | 500 to 2000
COC[C@H]1CCCN1C(=O)C1CCCN(S(=O)(=O)c2ccc(C)c(-c3cnc4c(N)nc(C(F)(F)F)cn34)c2)C1 (stereo partly drawn) [Example 511, (1-((3-(8-Amino-6-(trifluoromethyl)imidazo[1,2-a]pyrazin-3-yl)-4-methylphenyl)sulfonyl)piperidin-3-yl)((R)-2-(methoxymethyl)pyrrolidin-1-yl)methanone] | 500 to 2000 | > 2000
Cc1ccc(S(=O)(=O)N2C[C@H](O)[C@@H](N3CCN(C)CC3)C2)cc1-c1cnc2c(N)ncnn12 [Example 167, (3S,4S)-1-((3-(4-aminoimidazo[2,1-f][1,2,4]triazin-7-yl)-4-methylphenyl)sulfonyl)-4-(4-methylpiperazin-1-yl)pyrrolidin-3-ol] | 100 to 500 | > 2000
Cc1ccc(S(=O)(=O)N(C)C2CC(O)C2)cc1-c1cnc2c(N)ncnn12 [Example 159, 3-(4-aminoimidazo[2,1-f][1,2,4]triazin-7-yl)-N-((1R,3R)-3-hydroxycyclobutyl)-N,4-dimethylbenzenesulfonamide] | 100 to 500 | > 2000
Cc1ccc(S(=O)(=O)N2CCS(=O)(=O)CC2C)cc1-c1cnc2c(N)ncnn12 (centres unmarked) [Example 162, 4-((3-(4-aminoimidazo[2,1-f][1,2,4]triazin-7-yl)-4-methylphenyl)sulfonyl)-3-methylthiomorpholine 1,1-dioxide] | < 100 | 500 to 2000
Cc1cn2c(-c3ccc(F)c(S(=O)(=O)NC45CC(C#N)(C4)C5)c3)cnc2c(N)n1 [Example 382, 5-(8-Amino-6-methylimidazo[1,2-a]pyrazin-3-yl)-N-(3-cyanobicyclo[1.1.1]pentan-1-yl)-2-fluorobenzenesulfonamide trifluoroacetate salt] | 100 to 500 | 500 to 2000
Cc1ccc(S(=O)(=O)N2CC(N3CCOCC3)C2)cc1-c1cnc2c(N)ncnn12 [Example 146, 7-(2-methyl-5-((3-morpholinoazetidin-1-yl)sulfonyl)phenyl)imidazo[2,1-f][1,2,4]triazin-4-amine, 2TFA] | < 100 | 100 to 500
Cc1ccc(S(=O)(=O)NC2(C)CCN(C)C2)cc1-c1cnc2c(N)nc(C(F)(F)F)nn12 (centres unmarked) [Example 533, 3-(4-Amino-2-(trifluoromethyl)imidazo[2,1-f][1,2,4]triazin-7-yl)-N-(1,3-dimethylpyrrolidin-3-yl)-4-methylbenzenesulfonamide trifluoroacetate] | < 100 | –
